From US9701659B2, “Insecticidally active amide derivatives with sulfur-substituted phenyl or pyridine groups” (Syngenta Participations AG, priority 2014, dated 2017)

Legend:
[1] = system: Spodoptera littoralis (Egyptian cotton leaf worm); experiment: Example B1: activity against Spodoptera littoralis, larvicide, feeding/residual contact, preventive (cotton leaf discs); format: in vivo; conditions: foliar, 72 h, L1 larvae, 3 days after treatment, read-out: activity (mortality, repellent effect, feeding behaviour, growth regulation)
Excerpt: Activity Against Spodoptera littoralis (Egyptian Cotton Leaf Worm)
(§1) (Larvicide, Feeding/Residual Contact Activity, Preventive)
Cotton leaf discs were placed on agar in a 24-well microtiter plate and sprayed with test solutions. After drying, the leaf discs were infested with 5 L1 larvae. The samples were checked for mortality, repellent effect, feeding behaviour, and growth regulation 3 days after treatment (DAT).

[2] = system: Plutella xylostella (diamond back moth); experiment: Example B3: activity against Plutella xylostella, larvicide, feeding/residual contact, preventive (artificial diet); format: in vivo; conditions: 120 h, L2 larvae, 5 days incubation, read-out: activity (larval mortality, antifeedant, growth regulation)
Procedure: Activity Against Plutella xylostella (Diamond Back Moth)
as §1
24-well microtiter plate (MTP) with artificial diet was treated with test solutions by pipetting. After drying, the MTPs were infested with L2 larvae (10-15 per well). After an incubation period of 5 days, samples were checked for larval mortality, antifeedant and growth regulation.

[3] = system: Diabrotica balteata (corn root worm); experiment: Example B4: activity against Diabrotica balteata, larvae L2 on maize sprouts, feeding/contact, preventative; format: in vivo; conditions: 120 h, 5 days incubation, read-out: activity (larval mortality, growth regulation)
Procedure: Activity Against Diabrotica Balteata (Corn Root Worm)
(Larvae L2 on Maize Sprouts, Feeding/Contact, Preventative)
Maize sprouts, placed on an agar layer in 24 well micro titer plates were treated with test solutions by spraying. After drying, the MTPs were infested with L2 larvae (6-10 per well). After an incubation period of 5 days, samples were checked for larval mortality and growth regulation.

[4] = system: Myzus persicae (green peach aphid); experiment: Example B5: activity against Myzus persicae, feeding/residual contact, preventive, mixed population (sunflower leaf discs); format: in vivo; conditions: foliar, 144 h, mixed ages, 6 DAT, read-out: activity (mortality, special effects)
Procedure: (§2) Activity Against Myzus persicae (Green Peach Aphid)
(Feeding/Residual Contact Activity, Preventive), Mixed Population
Sunflower leaf discs were placed on agar in a 24-well microtiter plate and sprayed with test solutions. After drying, the leaf discs were infested with an aphid population of mixed ages. After an incubation period of 6 DAT, samples were checked for mortality and special effects (e.g. phytotoxicity).

[5] = system: Myzus persicae (green peach aphid); experiment: Example B6: activity against Myzus persicae, feeding activity sachet test, mixed population; format: in vivo; conditions: 120 h, 5 days after infestation
Excerpt: as §2
(Feeding Activity Sachet Test), Mixed Population
Test compounds were applied by pipette into 24 well plates and mixed with Sucrose solution. The plates were closed with a stretched Parafilm. A plastic stencil with 24 holes is placed onto the plate and infested pea seedlings were placed directly on the Parafilm. The infested plate is closed with a gel blotting paper and another plastic stencil and then turned upside down. 5 days after infestation the samples were checked on mortality. Application rate: 12.5 ppm.

[6] = system: Aedes aegypti (yellow fever mosquito); experiment: Example B9: activity against Aedes aegypti, adult females on treated plates; format: in vivo; conditions: 200 ppm in ethanol; after 48 hours
Procedure: Activity Against Aedes aegypti (Yellow Fever Mosquito)
Test solutions, at an application rate of 200 ppm in ethanol, were applied to 12-well tissue culture plates. Once the deposits were dry, five, two to five days old adult female Aedes aegypti were added to each well, and sustained with a 10% sucrose solution in a cotton wool plug. Assessment of knockdown was made one hour after introduction, and mortality was assessed at 24 and 48 hours after introduction.

[7] = system: Myzus persicae (green peach aphid); experiment: Example B7: activity against Myzus persicae, systemic/feeding activity, curative, mixed population (pea seedlings); format: in vivo; conditions: 144 h, roots in test solution, 6 days after introduction, read-out: activity (mortality, special effects on the plant)
Excerpt: as §2
(Systemic/Feeding Activity, Curative), Mixed Population
Roots of pea seedlings, infested with an aphid population of mixed ages, were placed directly in the test solutions. 6 days after introduction, samples were checked for mortality and special effects on the plant.

With CCS(=O)(=O)c1cc(C(F)(F)F)cnc1C(=O)/N=c1\ccc(SC(F)(F)F)cn1C as the molecule, how does the melting point read?
Its melting point is 167 to 169 °C.

Which results are given for CCS(=O)(=O)c1cc(C(F)(F)F)cnc1C(=O)/N=c1\sc(C(F)(F)F)nn1C [P6]?
mortality at 400 ppm [1]: > 80%; mortality at 400 ppm [2]: > 80%; mortality at 400 ppm [3]: > 80%

Which mortality at 400 ppm [4] does the source give for CCS(=O)(=O)c1cc(C(F)(F)F)cnc1C(=O)/N=c1\ccc(C(F)(F)F)nn1C [P9] here?
Its mortality at 400 ppm is over 80%.

With CCS(=O)(=O)c1cc(C(F)(F)F)cnc1C(=O)/N=c1\sc(C(F)(F)C(F)(F)F)nn1C as the molecule, how does the melting point read?
The melting point was 123 to 125 °C.

Which results are given for CCSc1cccnc1C(=O)/N=c1\sc(C(F)(F)F)nn1C [P3, (N)-3-ethylsulfanyl-N-[3-methyl-5-(trifluoromethyl)-1,3,4-thiadiazol-2-ylidene]pyridine-2-carboxamide]?
mortality at 400 ppm [3]: > 80%; mortality at 400 ppm [4]: > 80%; mortality at 12.5 ppm [5]: ≥ 80%; control of Aedes aegypti [6]: at least 80%

For CCSc1cc(C(F)(F)F)cnc1C(=O)/N=c1\sc(C(F)(F)F)nn1C [P4], which mortality at 400 ppm [1] is on record?
The mortality at 400 ppm was over 80%.

And the mortality at 400 ppm [2]?
Its mortality at 400 ppm is over 80%.

What about the mortality at 400 ppm [3] of the same molecule?
Its mortality at 400 ppm is over 80%.

Which melting point does the source give for CCS(=O)(=O)c1cc(C(F)(F)F)ccc1C(=O)/N=c1\sc(C(F)(F)F)nn1C here?
Its melting point is 195 to 197 °C.

With CCS(=O)(=O)c1cc(C(F)(F)F)cnc1C(=O)/N=c1\scc(C(F)(F)F)n1C as the molecule, how does the melting point read?
The melting point was 163 to 165 °C.

What does the source list for CCS(=O)(=O)c1cccnc1C(=O)/N=c1\sc(C(F)(F)F)nn1C [P5, (N)-3-ethylsulfonyl-N-[3-methyl-5-(trifluoromethyl)-1,3,4-thiadiazol-2-ylidene]pyridine-2-carboxamide]?
mortality at 400 ppm [4]: > 80%; mortality at 24 ppm [7]: ≥ 80%

For CCS(=O)(=O)c1cc(C(F)(F)F)cnc1C(=O)/N=c1\cc(C(F)(F)F)ccn1C, which melting point is on record?
The melting point was 153 to 155 °C.

Which mortality at 400 ppm [1] does the source give for CCS(=O)(=O)c1cc(C(F)(F)F)cnc1C(=O)/N=c1\sc(C(F)(F)F)cn1C [P1, (N)-3-ethylsulfonyl-N-[3-methyl-5-(trifluoromethyl)thiazol-2-ylidene]-5-(trifluoromethyl)pyridine-2-carboxamide] here?
The mortality at 400 ppm was over 80%.

What about the mortality at 400 ppm [3] of the same molecule?
The mortality at 400 ppm was over 80%.
